Assay results taken from PubChem BioAssay (NCI).
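Tested at 5 concentrations; 48 h exposure; 96-well plates; endpoints linearly interpolated, else capped at highest concentration. TGI: total growth inhibition.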

Key:
Assay in all cases: NCI tumour cell line growth inhibition, 48 h
NCI/ADR-RES ovarian = tested on: NCI/ADR-RES ovarian
NCI-H23 lung = tested on: NCI-H23 lung
T-47D breast = tested on: T-47D breast
HS 578T breast = tested on: HS 578T breast
OVCAR-4 ovarian = tested on: OVCAR-4 ovarian
NCI-H522 lung = tested on: NCI-H522 lung
ACHN renal = tested on: ACHN renal
BT-549 breast = tested on: BT-549 breast
OVCAR-5 ovarian = tested on: OVCAR-5 ovarian
OVCAR-8 ovarian = tested on: OVCAR-8 ovarian
EKVX NSCLC = tested on: EKVX NSCLC
OVCAR-3 ovarian = tested on: OVCAR-3 ovarian

Measured: TGI

Cc1cc(NCC2CC/C(=C\C=C\c3ccccc3)C2=O)no1 (centres undefined)
> 100 µM: NCI/ADR-RES ovarian | NCI-H23 lung | T-47D breast | HS 578T breast | OVCAR-4 ovarian | NCI-H522 lung | ACHN renal | BT-549 breast | OVCAR-5 ovarian | OVCAR-8 ovarian | EKVX NSCLC | OVCAR-3 ovarian

Cc1ccccc1NC(=O)/C(C#N)=N\Nc1nc[nH]c1C(N)=O
> 100 µM: NCI/ADR-RES ovarian | NCI-H23 lung | T-47D breast | HS 578T breast | OVCAR-4 ovarian | NCI-H522 lung | ACHN renal | BT-549 breast | OVCAR-5 ovarian | OVCAR-8 ovarian | EKVX NSCLC | OVCAR-3 ovarian
